PubChem BioAssay (NCI)
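The compound was tested at five concentrations on cells cultured in 96-well plates, with a 48-hour exposure period. TGI: concentration producing complete growth inhibition.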

Key:
Experiment in all cases: growth of human tumour cells (NCI), 48 h
[1] = tested on: 786-0 renal
[2] = tested on: A498 renal
[3] = tested on: A549 NSCLC
[4] = tested on: ACHN renal
[5] = tested on: BT-549 breast
[6] = tested on: CAKI-1 renal
[7] = tested on: COLO 205 colon
[8] = tested on: DU-145 prostate
[9] = tested on: EKVX NSCLC
[10] = tested on: HCC-2998 colon
[11] = tested on: HCT-116 colon
[12] = tested on: HCT-15 colon
[13] = tested on: HOP-62 NSCLC
[14] = tested on: HOP-92 NSCLC
[15] = tested on: HT29 colon
[16] = tested on: IGROV1 ovarian
[17] = tested on: K-562 leukemia
[18] = tested on: KM12 colon
[19] = tested on: M14 melanoma
[20] = tested on: MCF7 breast
[21] = tested on: MDA-MB-231 breast
[22] = tested on: MDA-MB-435
[23] = tested on: MDA-N
[24] = tested on: MOLT-4 leukemia
[25] = tested on: NCI-H226 lung
[26] = tested on: NCI-H23 lung
[27] = tested on: NCI-H460 lung
[28] = tested on: NCI/ADR-RES ovarian
[29] = tested on: OVCAR-3 ovarian
[30] = tested on: OVCAR-4 ovarian
[31] = tested on: OVCAR-5 ovarian
[32] = tested on: OVCAR-8 ovarian
[33] = tested on: PC-3 prostate
[34] = tested on: RPMI-8226 leukemia
[35] = tested on: RXF 393 renal
[36] = tested on: SF-268 CNS
[37] = tested on: SF-295 CNS
[38] = tested on: SF-539 CNS
[39] = tested on: SK-MEL-2 melanoma
[40] = tested on: SK-MEL-28 melanoma
[41] = tested on: SK-OV-3 ovarian
[42] = tested on: SN12C renal
[43] = tested on: SNB-19 CNS
[44] = tested on: SNB-75 CNS
[45] = tested on: SR leukemia
[46] = tested on: SW-620 colon
[47] = tested on: T-47D breast
[48] = tested on: TK-10 renal
[49] = tested on: U251 CNS
[50] = tested on: UACC-257 melanoma
[51] = tested on: UACC-62 melanoma
[52] = tested on: UO-31 renal
[53] = tested on: CCRF-CEM leukemia
[54] = tested on: HL-60(TB) leukemia
[55] = tested on: LOX IMVI melanoma
[56] = tested on: MALME-3M melanoma
[57] = tested on: NCI-H522 lung
[58] = tested on: SK-MEL-5 melanoma

COc1ccc(/C=C2/SC(c3ccccc3)N(NC(=O)CCCCCCCCC(=O)NN3C(=O)/C(=C\c4ccc(OC)c(OC)c4)SC3c3ccccc3)C2=O)cc1OC (stereo not drawn)
TGI [1]: 91.3 µM | TGI [2]: > 100 µM | TGI [3]: > 100 µM | TGI [4]: 71.8 µM | TGI [5]: > 100 µM | TGI [6]: > 100 µM | TGI [7]: > 100 µM | TGI [8]: > 100 µM | TGI [9]: 94.8 µM | TGI [10]: > 100 µM | TGI [11]: > 100 µM | TGI [12]: > 100 µM | TGI [13]: > 100 µM | TGI [14]: 66.3 µM | TGI [15]: > 100 µM | TGI [16]: 61.7 µM | TGI [17]: 62 µM | TGI [18]: > 100 µM | TGI [19]: > 100 µM | TGI [20]: > 100 µM | TGI [21]: > 100 µM | TGI [22]: > 100 µM | TGI [23]: 76.2 µM | TGI [24]: 60.5 µM | TGI [25]: > 100 µM | TGI [26]: > 100 µM | TGI [27]: > 100 µM | TGI [28]: > 100 µM | TGI [29]: > 100 µM | TGI [30]: > 100 µM | TGI [31]: > 100 µM | TGI [32]: > 100 µM | TGI [33]: > 100 µM | TGI [34]: 72.6 µM | TGI [35]: > 100 µM | TGI [36]: > 100 µM | TGI [37]: 72.9 µM | TGI [38]: 79.1 µM | TGI [39]: > 100 µM | TGI [40]: > 100 µM | TGI [41]: > 100 µM | TGI [42]: > 100 µM | TGI [43]: > 100 µM | TGI [44]: > 100 µM | TGI [45]: 98.3 µM | TGI [46]: > 100 µM | TGI [47]: > 100 µM | TGI [48]: > 100 µM | TGI [49]: > 100 µM | TGI [50]: > 100 µM | TGI [51]: 98.7 µM | TGI [52]: > 100 µM

CCOC(=O)c1sc2nc(SC)nc(Nc3ccc4c(c3)OCO4)c2c1N
TGI [1]: > 100 µM | TGI [2]: 96.9 µM | TGI [3]: > 100 µM | TGI [4]: 69.4 µM | TGI [5]: > 100 µM | TGI [6]: > 100 µM | TGI [53]: > 100 µM | TGI [7]: > 100 µM | TGI [8]: > 100 µM | TGI [9]: 77.5 µM | TGI [10]: > 100 µM | TGI [11]: > 100 µM | TGI [12]: > 100 µM | TGI [54]: > 100 µM | TGI [13]: > 100 µM | TGI [14]: 71.6 µM | TGI [16]: > 100 µM | TGI [17]: > 100 µM | TGI [18]: > 100 µM | TGI [55]: > 100 µM | TGI [19]: > 100 µM | TGI [56]: 97.6 µM | TGI [20]: > 100 µM | TGI [21]: > 100 µM | TGI [22]: > 100 µM | TGI [23]: > 100 µM | TGI [24]: > 100 µM | TGI [25]: > 100 µM | TGI [26]: > 100 µM | TGI [27]: > 100 µM | TGI [57]: > 100 µM | TGI [28]: > 100 µM | TGI [29]: > 100 µM | TGI [30]: > 100 µM | TGI [31]: > 100 µM | TGI [33]: > 100 µM | TGI [34]: > 100 µM | TGI [35]: 31 µM | TGI [37]: 84.8 µM | TGI [38]: > 100 µM | TGI [39]: > 100 µM | TGI [40]: 63.1 µM | TGI [58]: > 100 µM | TGI [42]: > 100 µM | TGI [43]: > 100 µM | TGI [45]: > 100 µM | TGI [46]: > 100 µM | TGI [47]: > 100 µM | TGI [48]: > 100 µM | TGI [49]: > 100 µM | TGI [50]: > 100 µM | TGI [51]: > 100 µM | TGI [52]: > 100 µM

CCOC(=O)Nn1cnnc1C
TGI [1]: > 100 µM | TGI [2]: > 100 µM | TGI [3]: > 100 µM | TGI [4]: > 100 µM | TGI [5]: > 100 µM | TGI [6]: > 100 µM | TGI [53]: > 100 µM | TGI [7]: > 100 µM | TGI [9]: > 100 µM | TGI [10]: > 100 µM | TGI [11]: > 100 µM | TGI [12]: > 100 µM | TGI [13]: > 100 µM | TGI [14]: > 100 µM | TGI [15]: > 100 µM | TGI [16]: > 100 µM | TGI [17]: > 100 µM | TGI [18]: > 100 µM | TGI [55]: > 100 µM | TGI [19]: > 100 µM | TGI [56]: > 100 µM | TGI [20]: > 100 µM | TGI [21]: > 100 µM | TGI [22]: > 100 µM | TGI [23]: > 100 µM | TGI [24]: > 100 µM | TGI [25]: > 100 µM | TGI [26]: > 100 µM | TGI [27]: > 100 µM | TGI [57]: > 100 µM | TGI [28]: > 100 µM | TGI [29]: > 100 µM | TGI [30]: > 100 µM | TGI [31]: > 100 µM | TGI [32]: > 100 µM | TGI [33]: > 100 µM | TGI [34]: > 100 µM | TGI [35]: > 100 µM | TGI [37]: > 100 µM | TGI [38]: > 100 µM | TGI [39]: > 100 µM | TGI [58]: > 100 µM | TGI [41]: > 100 µM | TGI [42]: > 100 µM | TGI [43]: > 100 µM | TGI [45]: > 100 µM | TGI [46]: > 100 µM | TGI [47]: > 100 µM | TGI [48]: > 100 µM | TGI [49]: > 100 µM | TGI [50]: > 100 µM | TGI [51]: > 100 µM | TGI [52]: > 100 µM
